From patent publication US10138232B2, “Naphthyridinedione derivatives” (NOVARTIS AG, priority 2014, dated 2018) come the findings set out here.

The subject of the experiment is CFTR-Y122X (GFP-CFTR-Y122X-Renilla construct) in Hek293 cell lines. Kind of experiment: CFTR-Y122X assay (dual reporter readthrough, Renilla luminescence). The following applies: Homo sapiens; for AC50: nonsense mutation suppression in the CFTR-Y122X assay; for AC50 / Emax: compounds incubated 24 h, tested up to 100 μM; for Emax: nonsense mutation suppression, 100% activity = 14 mM paromomycin, read-out: Amax. It is filed as cell-based. The source says:
In particular, compounds of formula (I), (I′), (Ia), (Ia′) or (Ib) I act as nonsense mutation suppressors on frequent PTCs, e.g. on Y122X in the mRNA of the cystic fibrosis conductance regulator protein (CFTR). This can be determined in vitro, for example, using cell lines expressing GFP-CFTR-Y122X-Renilla constructs as described herein.
Activity of compounds of the present invention was examined in recombinant, dual reporter isogenic Hek293 cell lines (“CFTR-Y122X assay”). The engineered reporter constructs contained the 18 bp sequence strech corresponding to a common Y122X PTC mutation in CFTR class I mutant patients (see Sermet-Gaudelus, BMC Medicine, 2007, 5(5)). Instead of a tyrosine (Y) in position 122 of the CFTR protein a TGA stop codon interrupts the open reading frame (Y122X) of the corresponding mRNA. This TGA stop codon triplet (followed by the pyrimidine base cytosine) is permissive to aminoglycoside mediated translational readthrough which served as positive control for high throughput screening. A corresponding TAA stop codon variant and a wildtype non mutated construct was used for confirmation and counter screening. The CFTR sequence was sandwiched between an eGFP reporter, and a triple myc tag sequence fused to a full length Renilla reporter. All sequences, including an intron containing one positioned pre-eGFP (b-globin intron) were cloned in frame. The corresponding expression constructs were stably expressed in the isogenic HEK-R4 cell host (Invitrogen Incorp.) and selected by blasticidin resistance. The isogenic integration of the construct minimizes gene dose effects and improves assay reproducibility. Stably integrated single cell derived clones were selected and characterized for aminoglycoside mediated readthrough. […] Readthrough of Y122X accumulates an intracellular localized fusion protein approximately 65.5 kDa in size as controlled by western blot analysis and immunofluorescence using an anti-renilla antibody. The eGFP reporter pre-PTC mutation serves as visual control for genetic stability of the screening clones and minimizes protein degradation of small fusion protein amounts. In the assay, compound concentration was 10 μM. In miniaturized 1536 well format 2000 cells were dispensed in 4 μl/well and incubated for 24 h at 37° C., 5% CO2. 40 nl compounds were placed on the cells with control wells containing 1 ul Paramomycin and 14.4 mM final concentration. Compounds were incubated for 24 h. Renilla Glo substrate (2.5 ul) was added and plates were centrifuged and processed for luminescence measurement using various readers. Activity calculation was done using the equation: A1(%)=100*(S−NC)/(AC−NC) where AC, NC and S correspond to active controls (injection of Stimulation buffer=100% stimulation), neutral controls (buffer injection which Iloprost EC10) and screening samples (S). NC corresponds to 0% activity whereas AC is 100% activity (14 mM paromomycin). False positive artefacts were removed in confirmation and validation screening using the same assay format followed by counterscreening using the respective wildtype construct (w/o PTC mutation) cell model. Compounds were tested up to 100 μM compound concentration.

Turning to `O=c1c2ccccc2[nH]c2cc(C3CCC3)n(-c3ccccn3)c(=O)c12` [Example 2.5, 3-cyclobutyl-2-(pyridin-2-yl)benzo[b][1,6]naphthyridine-1,10(2H,5H)-dione], half-maximal activity (AC50) was put at 2.7 µM and the Emax is 217%.
As to `Cn1c2ccccc2c(=O)c2c(=O)n(-c3ccccn3)c(C3CCC3)cc21` [Example 2.6, 3-cyclobutyl-5-methyl-2-(pyridin-2-yl)benzo[b][1,6]naphthyridine-1,10(2H,5H)-dione], half-maximal activity (AC50) was put at 3.3 µM and the Emax is 232%.
The matching figures for `O=c1c2ccccc2[nH]c2cc(C3CCC3)n(N3CCCC3)c(=O)c12` [Example 2.7, 3-cyclobutyl-2-(pyrrolidin-1-yl)benzo[b][1,6]naphthyridine-1,10(2H,5H)-dione]: 0.7 µM and 197%.
In the same order, the values of `Cn1c2ccccc2c(=O)c2c(=O)n(N3CCCC3)c(C3CCC3)cc21` [Example 2.8, 3-cyclobutyl-5-methyl-2-(pyrrolidin-1-yl)benzo[b][1,6]naphthyridine-1,10(2H,5H)-dione] are 6.1 µM and 188%.
`CC(C)c1cc2[nH]c3ccccc3c(=O)c2c(=O)n1-c1ccccn1` [Example 2.9, 3-isopropyl-2-(pyridin-2-yl)benzo[b][1,6]naphthyridine-1,10(2H,5H)-dione]: the AC50 (as a rule, the concentration giving half of the maximal activity seen) stood at 4.2 µM and the Emax came to 198%.
In the same order, the values of `CC(C)c1cc2c(c(=O)c3ccccc3n2C)c(=O)n1-c1ccccn1` [Example 2.10, 3-isopropyl-5-methyl-2-(pyridin-2-yl)benzo[b][1,6]naphthyridine-1,10(2H,5H)-dione] are 10 µM and 177%.
For the compound `CC(C)c1cc2[nH]c3ccccc3c(=O)c2c(=O)n1N1CCCC1` [Example 2.11, 3-isopropyl-2-(pyrrolidin-1-yl)benzo[b][1,6]naphthyridine-1,10(2H,5H)-dione], the concentration at half-maximal activity (AC50) is 0.9 µM. In other words, the sub-micromolar range.
For `CC(C)c1cc2c(c(=O)c3ccccc3n2C)c(=O)n1N1CCCC1` [Example 2.12, 3-isopropyl-5-methyl-2-(pyrrolidin-1-yl)benzo[b][1,6]naphthyridine-1,10(2H,5H)-dione], the AC50 stood at 1.7 µM and the Emax was 178%.
In the same order, the values of `CC(C)c1cc2[nH]c3ccccc3c(=O)c2c(=O)n1N1CCCCC1` [Example 2.13, 3-isopropyl-2-(piperidin-1-yl)benzo[b][1,6]naphthyridine-1,10(2H,5H)-dione] are 1.8 µM and 265%.
In the same order, the values of `CC(C)c1cc2c(c(=O)c3ccccc3n2C)c(=O)n1N1CCCCC1` [Example 2.14, 3-isopropyl-5-methyl-2-(piperidin-1-yl)benzo[b][1,6]naphthyridine-1,10(2H,5H)-dione] are 1.7 µM and 271%.
Regarding `CC(C)c1cc2[nH]c3sccc3c(=O)c2c(=O)n1C1CCCC1` [Example 2.15, 6-cyclopentyl-7-isopropylthieno[2,3-b][1,6]naphthyridine-4,5(6H,9H)-dione], the Emax came to 124%.
Turning to `CC(C)c1cc2c(c(=O)c3ccsc3n2C)c(=O)n1C1CCCC1` [Example 2.16, 6-cyclopentyl-7-isopropyl-9-methylthieno[2,3-b][1,6]naphthyridine-4,5(6H,9H)-dione], the AC50 turned out to be 1.2 µM and the Emax turned out to be 279%.
`CC(C)c1cc2[nH]c3ccccc3c(=O)c2c(=O)n1-n1cccc1` [Example 2.17, 3-isopropyl-2-(1H-pyrrol-1-yl)benzo[b][1,6]naphthyridine-1,10(2H,5H)-dione]: the AC50 is 9 µM and the Emax worked out at 237%.
As for `CC(C)c1cc2c(c(=O)c3ccccc3n2C)c(=O)n1-n1cccc1` [Example 2.18, 3-isopropyl-5-methyl-2-(1H-pyrrol-1-yl)benzo[b][1,6]naphthyridine-1,10(2H,5H)-dione], the AC50 is 17.6 µM and the Emax amounted to 75%.
On to `CC(C)c1c(Cl)c2[nH]c3ccccc3c(=O)c2c(=O)n1-c1ccccc1` [Example 3.1, 4-chloro-3-isopropyl-2-phenylbenzo[b][1,6]naphthyridine-1,10(2H,5H)-dione], for which the AC50 was 3.2 µM and the Emax came out at 211%.
The matching figures for `CC(C)c1c(Cl)c2c(c(=O)c3ccccc3n2C)c(=O)n1-c1ccccc1` [Example 3.2, 4-chloro-3-isopropyl-5-methyl-2-phenylbenzo[b][1,6]naphthyridine-1,10(2H,5H)-dione]: 17.2 µM and 220%.
For the compound `CC(C)c1c(Br)c2c(c(=O)c3ccccc3n2C)c(=O)n1-c1ccccc1` [Example 3.3, 4-bromo-3-isopropyl-5-methyl-2-phenylbenzo[b][1,6]naphthyridine-1,10(2H,5H)-dione], the AC50 was 18.8 µM and the Emax was 122%.
Consider `NC[C@@H]1O[C@H](O[C@H]2[C@@H](O)[C@H](O[C@@H]3[C@@H](O)[C@H](N)C[C@H](N)[C@H]3O[C@H]3O[C@H](CO)[C@@H](O)[C@H](O)[C@H]3N)O[C@@H]2CO)[C@H](N)[C@@H](O)[C@@H]1O` [paromomycin, reference compound], for which, under “clone pursued for HTS assay development, read-out: EC50 (response of selected clone, aminoglycoside mediated readthrough)”, the 50% effective concentration (EC50) – broadly, the concentration giving half of the maximal effect – was 1500 µM.
